Results from patent US10752640B2, “Compounds active towards bromodomains” (NUEVOLUTION A/S, priority 2014, dated 2020).

How the values were obtained:
BRD4 protein = BRD4 protein (Homo sapiens, UniProt O60885); assay: FRET assay, half maximal inhibitory concentration (IC50); assay type: binding; conditions: BRD4 protein 50 nM, Biotin-H4KAc4 peptide 12.5 nM; List of Classification
Outline: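 HTRF: 50 nM BRD4 preincubated 30 min at room temperature with compound (10-fold series from 50 μM in 12.5% DMSO) in 50 mM HEPES pH 7.5, 100 mM NaCl, 0.05% CHAPS. Then 12.5 nM biotin-H4KAc4 peptide for 30 min, and anti-GST XL665 (10 nM) plus streptavidin cryptate (2.4 nM) with 0.4 M KF for 1 h. IC50 by variable-slope fit.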

[1] = biological target: T1, BRD4(1), first bromodomain of BRD4 (Homo sapiens, UniProt O60885); assay: Bromoscan assay BRD4(1) (DiscoveRx); assay type: binding; conditions: for Kd: first bromodomain of BRD4, read-out: BromoScan BRD4_1 Kd/nM; for BromoScan BRD4_2/1: ratio of Kd BRD4_2 to BRD4_1, selectivity for BRD4_1 over BRD4_2
T1 construct: BRD4(1) for the first bromodomain of BRD4; purchased DiscoveRx Corporation (assay service); host or cells: T7 phage grown in an E. coli host derived from the BL21 strain
Protocol: (§1) Bromoscan assays were run by DiscoveRx Corporation. The relevant assay names are BRD4(1) for the first bromodomain of BRD4 and BRD4(2) for the second bromodomain of BRD4. Further Bromoscan assays covering other bromodomains could be employed to establish the selectivity profile of a compound of interest. To run the Bromoscan assay, a T7 phage strain displaying the relevant bromodomain was grown in parallel in 24-well blocks in an E. coli host derived from the BL21 strain. E. coli were grown to log-phase and infected with T7 phage from a frozen stock (multiplicity of infection=0.4) and incubated with shaking at 32° C. until lysis (90-150 minutes). The lysates were centrifuged (5,000×g) and filtered (0.2 μm) to remove cell debris. Streptavidin-coated magnetic beads were treated with biotinylated small molecule or acetylated peptide ligands for 30 minutes at room temperature to generate affinity resins for bromodomain assays. The liganded beads were blocked with excess biotin and washed with blocking buffer (SeaBlock (Pierce), 1% BSA (bovine serum albumin), 0.05% Tween 20, 1 mM DTT (dithiothreitol)) to remove unbound ligand and to reduce non-specific phage binding. Binding reactions were assembled by combining bromodomains, liganded affinity beads, and test compounds in 1× binding buffer (17% SeaBlock, 0.33×PBS, 0.04% Tween 20, 0.02% BSA, 0.004% Sodium azide, 7.4 mM DTT). Test compounds were prepared as 1000× stocks in 100% DMSO and subsequently diluted 1:10 in monoethylene glycol (MEG) to create stocks at 100× the screening concentration (resulting stock solution is 10% DMSO/90% MEG). The compounds were then diluted directly into the assays such that the final concentration of DMSO and MEG were 0.1% and 0.9%, respectively. All reactions were performed in polystyrene 96-well plates in a final volume of 0.135 ml. The assay plates were incubated at room temperature with shaking for 1 hour and the affinity beads were washed with wash buffer (1×PBS, 0.05% Tween 20). The beads were then re-suspended in elution buffer (lx PBS, 0.05% Tween 20, 2 μM nonbiotinylated affinity ligand) and incubated at room temperature with shaking for 30 minutes. The bromodomain concentration in the eluates was measured by qPCR (quantitative real-time polymerase chain reaction).

[2] = biological target: T2, BRD4(2), second bromodomain of BRD4 (Homo sapiens, UniProt O60885); assay: Bromoscan assay BRD4(2) (DiscoveRx); assay type: binding; conditions: read-out: BromoScan BRD4_2 Kd/nM
T2 construct: BRD4(2) for the second bromodomain of BRD4; purchased DiscoveRx Corporation (assay service); host or cells: T7 phage grown in an E. coli host derived from the BL21 strain
Protocol: as §1

MV-4-11 tumor cells = assay: Cell viability assay (CellTiter-Glo); assay type: cell-based; conditions: Homo sapiens, MV4-11; MV-4-11 cells, 72 hours with compound
Protocol: Grow MV-4-11 tumor cells (ATCC CRL-9591) in suspension at 37° C. in a humidified atmosphere (5% CO2, 95% air, IMDM (Iscove's Modified Dulbecco's Medium) medium supplemented with 10% FBS (fetal bovine serum)) Seed cells at a density of 10.000 cells per well of a flat-bottomed 96 well plate in 50 μL of medium. After 24 hours, add 50 μL of test compound or DMSO control from a pre-generated compound dilution series in medium. After an additional 72 hours, add 100 μL of pre-mixed CellTiter-Glo reagent (Promega G7570) to each well, shake for two minutes to allow cell lysis followed by 10 minutes of incubation at room temperature without shaking. Read luminescence on an Envision reader (Perkin Elmer). The inhibition of cell viability (IC) can be expressed as follows:
[formula] IC data can be analyzed using GraphPad Prism, and IC50 data can be obtained using non-linear regression curve fit using log(compound) vs response (variable slope). The effect of compound on the viability of other cell lines can be assayed under similar conditions, taking into account the growth requirement of the individual cell line.

IL-12p40 = assay: Cytokine release inhibition assay: LPS-induced cytokine release from human PBMCs; assay type: cell-based; conditions: PBMC, LPS 1 ng/mL, 18 h, read-out: LPS IC50 IL12p40 μM
Protocol: Cytokine release inhibition assay: LPS-induced cytokine release from human peripheral blood mononuclear cells (PBMCs)
200,000 PBMCs were seeded per well of a 96-well plate in 160 μL of medium. Afterwards, 20 μL of ten times concentrated working dilutions of compound or DMSO control were added per well. Cells were pre-incubated with compounds for 1 h at 37° C., 5% CO2, 95% humidity and 20 μL of ten times concentrated LPS was added to cells (Sigma L4391, final concentration 1 ng/mL). Following 18 h incubation at 37° C., 5% CO2, 95% humidity, plates were centrifuged for 10 minutes at 300×g. 150 μL of supernatants were collected for IL-12p40 determination. The concentration of IL-12p40 in supernatants was determined by sandwich ELISA (enzyme-linked immunosorbent assay) using capture and detection antibodies according to the manufacturer's instructions (R&D Systems DY1240). Data can be analyzed using GraphPad Prism, and IC50 data can be obtained using non-linear regression curve fit using log(compound) vs response (variable slope).

| SMILES | IC50 (BRD4 protein) [nM] | Kd [1] [nM] | BromoScan BRD4_2/1 [1] | Kd [2] [nM] | IC50 (MV-4-11 tumor cells) [nM] | IC50 (IL-12p40) [nM] |
| --- | --- | --- | --- | --- | --- | --- |
| Cc1cc(O)nc2c(C)cc(NC(=O)c3cc(S(=O)(=O)N(C)C)ccc3N3CCCC3)cc12 [Compound-107, 5-(dimethylsulfamoyl)-N-(2-hydroxy-4,8-dimethyl-6-quinolyl)-2-pyrrolidin-1-yl-benzamide] | < 200 | 3.6 | 7.8 | 28 | 700 |  |
| Cc1cc(O)nc2ccc(NC(=O)c3cccnc3N3CCOCC3)cc12 [Compound-128, N-(2-hydroxy-4-methyl-6-quinolyl)-2-morpholino-pyridine-3-carboxamide] | < 200 | 15 | 166.7 | 2500 |  | 300 |
| Cc1cc(O)nc2ccc(NC(=O)c3cc(C(C)O)ncc3N3CCCC3)cc12 (centres unmarked) [Compound-43] | < 200 | 2.4 | 32.9 | 79 |  | 400 |
| Cc1cc(O)nc2ccc(NC(=O)c3cc(C#N)ncc3N3CCC(F)C3)cc12 (centres unmarked) [Compound-197, 2-cyano-5-(3-fluoropyrrolidin-1-yl)-N-(2-hydroxy-4-methylquinolin-6-yl) isonicotinamide] | 500 to 1000 |  |  |  |  |  |

Results, then the molecule that gave them:

| IC50 (BRD4 protein) [nM] | Kd [1] [nM] | BromoScan BRD4_2/1 [1] | Kd [2] [nM] | IC50 (MV-4-11 tumor cells) [nM] | IC50 (IL-12p40) [nM] | SMILES |
| --- | --- | --- | --- | --- | --- | --- |
| < 200 | 6.2 | 190.9 | 1180 | 1200 |  | Cc1cc(O)nc2ccc(NC(=O)c3cc(S(=O)(=O)N4CCCCC4)ccc3N3CCOCC3)cc12 [Compound-67, N-(2-hydroxy-4-methyl-6-quinolyl)-2-morpholino-5-(1-piperidylsulfonyl)benzamide] |
| < 200 | 12 | 466.7 | 5600 |  | 400 | Cc1cc2nc(O)cc(C)c2cc1NC(=O)c1cc(S(=O)(=O)N(C)C)ccc1N1CCOCC1 [Compound-99, 5-(dimethylsulfamoyl)-N-(2-hydroxy-4,7-dimethyl-6-quinolyl)-2-morpholino-benzamide] |
| < 200 | 16 | 11.9 | 190 | 600 |  | Cc1cc(O)nc2ccc(NC(=O)c3cc(C4(N5CCOCC5)CC4)ccc3N3CCCC3)cc12 [Compound-113, N-(4-methyl-2-oxo-1,2-dihydroquinolin-6-yl)-5-(1-morpholinocyclopropyl)-2-(pyrrolidin-1-yl)benzamide] |
| < 200 | 13 | 25.4 | 330 | 600 | 300 | Cc1cc(O)nc2ccc(NC(=O)c3cc(CN4CCN(C)CC4)ccc3N3CCCC3)cc12 [compound 1, N-(2-hydroxy-4-methylquinolin-6-yl)-5-((4-methylpiperazin-1-yl)methyl)-2-(pyrrolidin-1-yl)benzamide] |
| < 200 |  |  |  |  |  | Cc1cc(O)nc2ccc(NC(=O)c3cccnc3N3CCCC3CN(C)C)cc12 (centres unmarked) [Compound-97, 2-[2-(dimethylaminomethyl)pyrrolidin-1-yl]-N-(2-hydroxy-4-methyl-6-quinolyl)pyridine-3-carboxamide] |
